Test systems include MOLT-4 leukemia; HCC-2998 colon; BT-549 breast; TK-10 renal; LOX IMVI melanoma; SNB-19 CNS; K-562 leukemia; 786-0 renal; A549 NSCLC; MDA-MB-231 breast; M14 melanoma; UACC-62 melanoma; U251 CNS.
Common to all, as to assay: NCI anticancer screen, dose series, 48 h

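Values below derive from 48-hour exposures of cells grown in 96-well plates, with endpoints linearly interpolated between the two concentrations bracketing the appropriate inhibition level. TGI: concentration producing complete growth inhibition.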 *1 amine or outer side, *2 acyl side, *3 side chain or, on linkers, in order; H or OH if unused. Where a SMILES comes first, the peptide text is derived from it. [ ]: non-standard residue; d: D form. The star is where a group is joined. X31 = CC(=O)N(C)SCC(N[*:1])C(=O)[*:2]; Fmoc = O=C(OCC1c2ccccc2-c2ccccc21)*; For = O=C* Where only a bound is given, the exact number is not on record here.

Regarding `Nc1cc(N)c(N=Nc2cccc3c(S(=O)(=O)O)cccc23)cc1N=Nc1cc([N+](=O)[O-])ccc1O`, the TGI with MOLT-4 leukemia was more than 100 µM; in the experiment with HCC-2998 colon, 79.9 µM; with BT-549 breast, more than 100 µM; with TK-10 renal, more than 100 µM; in the experiment with LOX IMVI melanoma, 37.1 µM; with SNB-19 CNS, more than 100 µM. For the same compound, the TGI was more than 100 µM in the experiment with K-562 leukemia; more than 100 µM in the experiment with 786-0 renal; 67.9 µM in the experiment on A549 NSCLC; more than 100 µM in the experiment with MDA-MB-231 breast; more than 100 µM in the experiment on M14 melanoma; 59.2 µM in the experiment on UACC-62 melanoma. The compound also showed a TGI in the experiment on U251 CNS of more than 100 µM.
On to `COC(=O)C1(C)OC(C)=NC1(C(=O)OC)C(=O)OC` (centres undefined), for which the TGI with MOLT-4 leukemia was more than 100 µM; with HCC-2998 colon, more than 100 µM; in the experiment with BT-549 breast, more than 31.6 µM; in the experiment on TK-10 renal it was more than 100 µM; in the experiment with LOX IMVI melanoma, more than 100 µM; in the experiment with SNB-19 CNS, more than 100 µM. The TGI in the experiment on K-562 leukemia, with 786-0 renal, in the experiment with A549 NSCLC, in the experiment on MDA-MB-231 breast, in the experiment with M14 melanoma and with UACC-62 melanoma was more than 100 µM in each case. Besides, the TGI in the experiment with U251 CNS is more than 100 µM.
Turning to `CC1=C(C(=O)NC(C)(C)C)CC(C(=O)NC(C)(C)C)C(C)N1` (centres undefined), the TGI in the experiment on MOLT-4 leukemia, with HCC-2998 colon, in the experiment with BT-549 breast, with TK-10 renal, in the experiment on LOX IMVI melanoma and in the experiment on SNB-19 CNS was more than 100 µM throughout. In addition, the TGI in the experiment with K-562 leukemia, in the experiment on 786-0 renal, in the experiment on A549 NSCLC, in the experiment on MDA-MB-231 breast, with M14 melanoma and with UACC-62 melanoma was more than 100 µM each time. The TGI in the experiment with U251 CNS is more than 100 µM.
As to `O=[N+]([O-])c1ccc2[nH]c(O)c(N=NC(=S)Nc3ccccc3)c2c1`, the TGI in the experiment with MOLT-4 leukemia was more than 100 µM; in the experiment on HCC-2998 colon, 12.4 µM; in the experiment on BT-549 breast it was 19.9 µM; in the experiment with TK-10 renal it was 23.6 µM; in the experiment on LOX IMVI melanoma, 24.6 µM; with SNB-19 CNS it was 27.6 µM. Further, the TGI is more than 100 µM in the experiment with K-562 leukemia; 17.7 µM with 786-0 renal; 20.8 µM with A549 NSCLC; 24.8 µM in the experiment with MDA-MB-231 breast; 22.4 µM with M14 melanoma; 29 µM in the experiment on UACC-62 melanoma. The compound also gave a TGI with U251 CNS of 16.6 µM.
Turning to `O=C1c2c(ccc3c2CCCC3)CC1Cc1ccc2c(c1)CCCC2` (centres undefined), the TGI in the experiment with MOLT-4 leukemia, with HCC-2998 colon, in the experiment on BT-549 breast, with TK-10 renal, in the experiment on LOX IMVI melanoma and with SNB-19 CNS was more than 100 µM each time. In addition, the TGI in the experiment with K-562 leukemia, in the experiment with 786-0 renal, in the experiment on A549 NSCLC, in the experiment on MDA-MB-231 breast, with M14 melanoma and in the experiment with UACC-62 melanoma was more than 100 µM each time. For the same compound, in the experiment with U251 CNS, the TGI was more than 100 µM.
In the case of `Cc1ncc(CO)c(C=NCCCCCCN=Cc2c(CO)cnc(C)c2O)c1O`, the TGI in the experiment on MOLT-4 leukemia, in the experiment on HCC-2998 colon, with BT-549 breast, with TK-10 renal, in the experiment with LOX IMVI melanoma and with SNB-19 CNS was more than 100 µM each time. The TGI with K-562 leukemia, with 786-0 renal, with A549 NSCLC, in the experiment on MDA-MB-231 breast, with M14 melanoma and in the experiment on UACC-62 melanoma was more than 100 µM throughout. The compound further came in with a TGI in the experiment with U251 CNS of more than 100 µM.
`C=CC[C@H]1[C@H](O[Si](C)(C)C(C)(C)C)C=CC(=O)[C@@H]1CC(=O)OCC`: the TGI was found to be 48 µM in the experiment on MOLT-4 leukemia; 25.5 µM in the experiment on HCC-2998 colon; 30.3 µM in the experiment on BT-549 breast; 28 µM in the experiment on TK-10 renal; 32 µM with LOX IMVI melanoma; 25.7 µM in the experiment on SNB-19 CNS. In addition, the TGI in the experiment on K-562 leukemia worked out at 20.4 µM; in the experiment on 786-0 renal, 27.6 µM; in the experiment with A549 NSCLC, 23.9 µM; in the experiment on MDA-MB-231 breast, 27.6 µM; with M14 melanoma, 25.3 µM; with UACC-62 melanoma, 24.1 µM. This compound also came in with a TGI in the experiment on U251 CNS of 27.8 µM.
As for `O=C(O)CCc1nc2cc3ccccc3cc2[nH]c1=O`, the TGI with MOLT-4 leukemia, in the experiment on HCC-2998 colon, in the experiment with BT-549 breast, in the experiment with TK-10 renal, in the experiment with LOX IMVI melanoma and in the experiment on SNB-19 CNS was more than 100 µM throughout. For the same compound, the TGI in the experiment with K-562 leukemia, in the experiment with 786-0 renal, in the experiment with A549 NSCLC, in the experiment with MDA-MB-231 breast, in the experiment on M14 melanoma and with UACC-62 melanoma was more than 100 µM in each case. Moreover, the TGI in the experiment on U251 CNS is more than 100 µM.
Turning to `CC1=C(C)C(=O)C(C2=C(C3=CC(=O)C(C)=C(C)C3=O)C(=O)c3ccccc3C2=O)=CC1=O`, the TGI came out at 5.3 µM in the experiment on MOLT-4 leukemia; 16.3 µM with HCC-2998 colon; 7.16 µM with BT-549 breast; 15.9 µM in the experiment with TK-10 renal; 5.94 µM in the experiment on LOX IMVI melanoma; 25.8 µM in the experiment on SNB-19 CNS. The TGI in the experiment on K-562 leukemia was 19.7 µM; with 786-0 renal it was 5.74 µM; with A549 NSCLC it was 17.7 µM; in the experiment on MDA-MB-231 breast, 6.23 µM; in the experiment with M14 melanoma, 3.64 µM; in the experiment with UACC-62 melanoma, 4.62 µM. This compound also gave a TGI in the experiment with U251 CNS of 12.6 µM.
For `CC(=O)N(C)SCC(NC(=O)C(Cc1ccccc1)NC(=O)OCC1c2ccccc2-c2ccccc21)C(=O)NC(Cc1ccccc1)C(=O)NC(Cc1cn(C=O)c2ccccc12)C(=O)NC(CCCCNC(=O)OCC1c2ccccc2-c2ccccc21)C(=O)NC(C(=O)NC(CSN(C)C(C)=O)C(=O)NC(C(N)=O)C(C)O)C(C)O` (centres undefined) (Fmoc-F[X31]FW(For)K(Fmoc)T[X31]T-NH2; configuration not given here), the TGI is more than 100 µM in the experiment on MOLT-4 leukemia; more than 100 µM with HCC-2998 colon; more than 100 µM in the experiment on BT-549 breast; 67.5 µM in the experiment with TK-10 renal; more than 100 µM with LOX IMVI melanoma; more than 100 µM with SNB-19 CNS. Further, the TGI was more than 100 µM in the experiment with K-562 leukemia; more than 100 µM with 786-0 renal; more than 100 µM in the experiment on A549 NSCLC; 51.4 µM in the experiment with MDA-MB-231 breast; more than 100 µM with M14 melanoma; more than 100 µM with UACC-62 melanoma. The same compound came in with a TGI in the experiment with U251 CNS of more than 100 µM.
Consider `COC(=O)CCC1(O)C=CC(=O)C=C1`, for which the TGI in the experiment with MOLT-4 leukemia, with HCC-2998 colon, in the experiment with BT-549 breast, in the experiment on TK-10 renal, in the experiment with LOX IMVI melanoma and in the experiment on SNB-19 CNS was more than 100 µM throughout. The TGI was more than 100 µM in the experiment on K-562 leukemia; more than 100 µM in the experiment with 786-0 renal; more than 100 µM in the experiment on A549 NSCLC; more than 100 µM with MDA-MB-231 breast; more than 100 µM in the experiment with M14 melanoma; 58 µM with UACC-62 melanoma. In the experiment on U251 CNS, this compound gave a TGI of 63.2 µM.
As to `NCCC1([N+](=O)[O-])CCNCC1`, the TGI with MOLT-4 leukemia, with HCC-2998 colon, with BT-549 breast, in the experiment with TK-10 renal, with LOX IMVI melanoma and with SNB-19 CNS was more than 100 µM throughout. Also, the TGI in the experiment on K-562 leukemia, in the experiment with 786-0 renal, in the experiment with A549 NSCLC, with MDA-MB-231 breast, with M14 melanoma and in the experiment on UACC-62 melanoma was more than 100 µM each time. This compound had a TGI in the experiment with U251 CNS of more than 100 µM.
Take `c1cc(C[S+]2CCCC2)oc1C[S+]1CCCC1`: the TGI in the experiment with MOLT-4 leukemia, in the experiment on HCC-2998 colon, with BT-549 breast, in the experiment with TK-10 renal, in the experiment on LOX IMVI melanoma and with SNB-19 CNS was more than 100 µM in each case. Further, the TGI in the experiment on K-562 leukemia, with 786-0 renal, with A549 NSCLC, with MDA-MB-231 breast, in the experiment on M14 melanoma and in the experiment with UACC-62 melanoma was more than 100 µM each time. In the experiment on U251 CNS, this compound had a TGI of more than 100 µM.

The record behind these values is PubChem BioAssay (NCI).
